Assays:
Type in all cases: cell-based
[1] = test system: Nrf2-responsive proteins NQO1 and GCLM; experiment: NRF2 responses in wild type and mutant SOD1 (G93A) primary astroglia; details: wild type and mutant SOD1 (G93A) mouse primary astroglia
From the text: Primary glia was derived from wild type and mutant SOD1 (G93A) mice and treated with MIND4 and MIND4-17 at indicated doses. The expression NRF2 responsive NQO1 and GCLM proteins were detected by immunochemistry. […] Importantly, compounds had no effects on human mutant SOD1 transgene, expressing in mice from human promoter.

[2] = test system: NRF2/KEAP1 in MEFs; experiment: NQO1 and NRF2 levels in mouse embryonic fibroblasts (MEFs), western blot; details: wild-type MEFs; for Accumulation of total NRF2 protein: 5 hr exposure
Experimental: Mouse embryonic fibroblasts (MEFs) from wild-type (WT), NRF2-knockout (NRF2-KO) or KEAP1-knockout (KEAP1-KO) mice, were cultured in plastic dishes (Invitrogen) coated for 30 min with 0.1% (w/v) gelatin before use. The cell culture medium was Iscoves Modified Dulbecco's Medium (with L-glutamine) supplemented with human recombinant epidermal growth factor (10 ng/mL), 1× insulin/transferrin/selenium, and 10% (v/v) heat-inactivated FBS, all from Invitrogen. Cells were maintained at 5% CO2 in air at 37° C. For experiments, cells (250,000 per well) were grown for 24 hr on 6-well plates, and then treated with solvent control (0.1% DMSO, v/v) or compounds for either 5 hr or 24 hr. For western blot analysis, cells were washed twice with ice-cold phosphate buffered saline (PBS) and lysed in 150 μl of RIPA buffer (50 mM Tris-Cl pH 7.5, 150 mM NaCl, 0.5% sodium deoxycholate, 1% NP-40, 0.1% SDS and 1 mM EDTA), containing 1 protease inhibitor cocktail tablet (Roche) per 10 ml of buffer. Cell debris were removed by centrifugation at 16,300×g for […] at 4° C., and protein concentrations were determined by the BCA assay (Thermo). Proteins were resolved by SDS/PAGE, transferred to immobilon-P membranes, and probed with specific antibodies against NQO1 (1:1000) or NRF2 (1:1000). Equal loading was confirmed by probing the blots with an antibody against β-actin (mouse monoclonal, 1:10000), from Sigma, Dorset, United Kingdom.
For nuclear-cytoplasmic separation, WT MEFs (500,000 per dish) were grown for 24 hr on 6-cm plates, and then treated with solvent control (0.1% DMSO, v/v) or 0.5 μM MIND4-17. At the end of each treatment time, cells were placed on ice and washed twice with ice-cold PBS and subsequently lysed in buffer A [10 mM KCl, 5 mM MgCl2, 50 mM Tris-HCl (pH 7.5), 0.5% Nonidet P-40 (Roche), 1 mM dithioretitol (DTT) (Sigma), containing one protease inhibitor tablet and one phosphatase inhibitor tablet (both from Roche) per each 10 ml of buffer]. The lysates were subjected to centrifugation (Spectrafuge 24D, Labnet) at 1,000×g for 5 min at 4° C. The supernatant (cytoplasmic fraction) was transferred to a fresh Eppendorf tube. The pellet (nuclear fraction) was washed three times in buffer A before being dissolved in buffer B [2% SDS, 150 mM NaCl, 65 mM Tris-HCl (pH 8.0)] and sonicated for 30 sec. Finally, the lysates were subjected to western blot analysis. The blots were probed with antibodies against GAPDH (rabbit polyclonal, 1:5000) and Lamin A/C (rabbit polyclonal, 1:1000, Gene Tex, Calif., United States of America) to confirm fraction purity and equal protein loading.

[3] = test system: LUHMES cells overexpressing aSyn; experiment: Viability assay (adenylate kinase release) in differentiated LUHMES cells overexpressing aSyn; details: 0.4 μM and 1 μM, 96 hr
Experimental: LUHMES cells were maintained as proliferating cultures and differentiated into post-mitotic-like neurons on Nunclon plates and flasks, pre-coated with 50 μg/mL poly-L-ornithine (Sigma) and 1 μg/mL fibronectin (Sigma). Specifically, 8×10^6 proliferating LUHMES cells were seeded into a T175 flask containing proliferation medium, consisting of advanced DEMEM/F12 (Invitrogen), 2 mM L-glutamine (Sigma-Aldrich), 1×N2 supplement (Invitrogen) and 40 ng/mL recombinant human bFGF (R&D Systems). After 24 hr, proliferation medium was replaced with differentiation medium, composed of advanced DMEM/F12 (Invitrogen), 2 mM L-glutamine (Sigma-Aldrich), 1×N2 supplement (Invitrogen), 1 mM dibutyryl 3′, 5′-cyclic adenosine monophosphate (Sigma-Aldrich), 2.25 μM tetracycline and 2 ng/mL recombinant human GDNF (R&D Systems). 48 hr later, cells were trypsinized and seeded into 24-well plates, containing 1 mL of differentiation medium and 250,000 cells/well.
For lenti-virus based expression the following transfer plasmids have been constructed. […] The measurement of transgene expression has been determined by qRT PCR using SYBR GREEN, after infection of 293-Hek-cells, and specific primers to the woodchuck hepatitis virus posttranscriptional regulatory element (WPRE) as described previously (PMID: 12718761). […]

SMILES | Induction of Nrf2-responsive proteins NQO1 and GCLM [1] | NRF2 levels in nuclear and cytoplasmic fractions ([2]; 0.5 μM, from 30 min, elevated for at least 5 hr) | Accumulation of total NRF2 protein [2] | Protection against αSyn toxicity [3]
O=[N+]([O-])c1ccc(Sc2nnc(COc3ccccc3)n2-c2ccccc2)nc1 [MIND4-17] | dose-dependent induction | increase of NRF2 levels was detected | readily detectable | significant protective effects
O=[N+]([O-])c1ccc(Sc2nnc(COc3ccccc3)n2-c2ccccc2)c2ncccc12 [MIND4, 5-nitro-8-{[5-(phenoxymethyl)-4-phenyl-4H-1,2,4-triazol-3-yl]thio}quinoline] | dose-dependent induction | – | to much lesser extent | only mild protection

From patent US9737525B2, “Small molecule activators of NRF2 pathway” (The General Hospital Corporation, priority 2013, dated 2017)
